# Measured values as given in patent US3932512A, “Antiviral 1,2,3,4-tetrahydro-1,-alkano naphthalenamine derivatives” (priority 1972, dated 1976).
# Read-outs that look alike come from different tables or passages of the source.
# Experiments:
# [1] = tested on: Influenza A2 /Aichi/3/68; experiment: in vitro anti-myxovirus activity, influenza A2 /Aichi/3/68, G-2 cells (% inhibition of hemadsorption); format: cell-based, Influenza A2 /Aichi/3/68 (human); settings: for inhibition at 100 µg/mL: 100 μg/ml; for inhibition at 40 µg/mL: 40 μg/ml; for inhibition at 30 µg/mL: 30 μg/ml; for inhibition at 50 µg/mL: 50 μg/ml; for inhibition at 60 µg/mL: 60 μg/ml; for inhibition at 70 µg/mL: 70 μg/ml; for inhibition at 80 µg/mL: 80 μg/ml; for inhibition at 90 µg/mL: 90 μg/ml; for inhibition at 10 µg/mL: 10 μg/ml; for inhibition at 20 µg/mL: 20 μg/ml
# [2] = tested on: mice; experiment: toxicity of in vitro active anti-myxovirus compounds in mice; settings: for Maximal non-toxic dose LD0, acute / Maximal non-toxic dose LD0, subacute: I/P; for toxicity compared with Amantadine or compound I: words
# [3] = as above; settings: mouse, in vivo, ip, I/P
# [4] = cytotoxicity in G-2 cells; format: cell-based; settings: human; for CC50: 50% inhibition of cell growth, read-out: Cytotoxicity CTD50; for MNTC: maximal non-toxic concentration, read-out: Cytotoxicity CTD0
# Protocol: In preparing the compounds for testing, they were handled aseptically throughout. The compounds were dissolved in a minimum amount of a suitable solvent and the final dilutions were made up to the required volume in a complete culture medium used in assay and in concentration not exceeding the predetermined maximum non-toxic levels.
# The cell culture used in all primary in vitro anti-myxovirus assays was an established cell line of the human conjunctiva (G-2 cells). The cytotoxic studies of each of the compounds were performed prior to testing for antiviral activity to determine level of response of the cells to the potentially toxic action of the compounds.
# [5] = tested on: Influenza (swine); experiment: cells; format: cell-based; settings: for inhibition at 30 µg/mL: 30 μg/ml; for inhibition at 80 µg/mL: 80 μg/ml; for inhibition at 100 µg/mL: 100 μg/ml
# [6] = Homo sapiens, 100 TCID50, read-out: % Inhibition
# [7] = 50% toxic dose LD50, acute, acute
# [8] = 50% toxic dose LD50, subacute, subacute
Structure (SMILES),"inhibition at 100 µg/mL [1, 6] [%]","Maximal non-toxic dose LD0, acute [2] [mg/kg]","Maximal non-toxic dose LD0, subacute [2] [mg/kg]",toxicity compared with Amantadine or compound I [2],"LD50 [3, 7] [mg/kg]","LD50 [3, 8] [mg/kg]",CC50 [4] [µg/mL],MNTC [4] [µg/mL],inhibition at 30 µg/mL [5] [%],inhibition at 40 µg/mL ([5]; 40 μg/ml) [%],inhibition at 50 µg/mL ([5]; 50 μg/ml) [%],inhibition at 60 µg/mL ([5]; 60 μg/ml) [%],inhibition at 80 µg/mL [5] [%],inhibition at 100 µg/mL [5] [%],inhibition at 40 µg/mL ([1]; 100 TCID50) [%],"inhibition at 30 µg/mL ([1]; Homo sapiens, 100 TCID50) [%]","inhibition at 50 µg/mL ([1]; Homo sapiens, 100 TCID50) [%]","inhibition at 60 µg/mL ([1]; Homo sapiens, 100 TCID50) [%]","inhibition at 70 µg/mL ([1]; Homo sapiens, 100 TCID50) [%]","inhibition at 80 µg/mL ([1]; Homo sapiens, 100 TCID50) [%]",other results
"CN(C)C[C@H]1[C@H](N)[C@H]2C[C@@H]1c1ccccc12 (relative stereo) [Compound III, 1,2,3,4-tetrahydro-1,4-methanonaphthalen-exo-3-dimethylaminomethyl-endo-2-amine]",90,500,250,far less toxic than either the known antiviral agent Amantadine or compound I,750,500 to 750,> 100,> 100,–,–,–,–,–,–,–,–,–,–,–,–,"inhibition at 33.3 µg/mL ([1]; Homo sapiens, 33.3 μg/ml, 100 TCID50): 3%; inhibition at 66.7 µg/mL ([1]; Homo sapiens, 66.7 μg/ml, 100 TCID50): 87%"
"NC12CC3CC(CC(C3)C1)C2 [Amantadine, reference compound]",–,175,150,–,–,–,> 100,> 100,0,10,67,83,100,100,0,0,0,0,33,27,"% Inhibition ([5]; 40 μg/ml, listed as AMANTADINE HYDROCHLORIDE): 17%; % Inhibition ([5]; 50 μg/ml, listed as AMANTADINE HYDROCHLORIDE): 80%; % Inhibition ([5]; 60 μg/ml, listed as AMANTADINE HYDROCHLORIDE): 90%; inhibition at 70 µg/mL ([5]; 70 μg/ml): 97%; % Inhibition ([5]; 70 μg/ml, listed as AMANTADINE HYDROCHLORIDE): 93%; inhibition at 90 µg/mL ([5]; 90 μg/ml): 100%; inhibition at 40 µg/mL ([1]; 56.2 TCID50): 0%; inhibition at 30 µg/mL ([1]; Homo sapiens, 56.2 TCID50): 0%; inhibition at 50 µg/mL ([1]; Homo sapiens, 56.2 TCID50): 0%; inhibition at 60 µg/mL ([1]; Homo sapiens, 56.2 TCID50): 53%; inhibition at 70 µg/mL ([1]; Homo sapiens, 56.2 TCID50): 83%; inhibition at 80 µg/mL ([1]; Homo sapiens, 56.2 TCID50): 70%; inhibition at 90 µg/mL ([1]; Homo sapiens, 56.2 TCID50): 97%; inhibition at 90 µg/mL ([1]; Homo sapiens, 100 TCID50): 67%; inhibition at 100 µg/mL ([1]; Homo sapiens, 56.2 TCID50): 87%; inhibition at 100 µg/mL ([1]; Homo sapiens, 100 TCID50): 43%"
"NC1C2CCC(c3ccccc32)C1N (stereo not drawn) [Compound VII, 1,2,3,4-tetrahydro-1,4-ethanonaphthalen-exo-3-endo-2-diamine]",83,700,700,far less toxic than either the known antiviral agent Amantadine or compound I,775 to 800,800,> 100,> 100,90,97,100,100,100,100,30,20,67,80,57,60,"inhibition at 10 µg/mL ([5]; 10 μg/ml): 0%; inhibition at 20 µg/mL ([5]; 20 μg/ml): 56%; % Inhibition ([5]; 20 μg/ml, listed as 1,2,3,4-TETRAHYDRO-1,4-[…]-EXO-3-ENDO-2-DIAMINE.2HCl): 70%; inhibition at 40 µg/mL ([1]; 31.6 TCID50): 87%; inhibition at 10 µg/mL ([1]; Homo sapiens, 31.6 TCID50): 0%; inhibition at 10 µg/mL ([1]; Homo sapiens, 100 TCID50): 0%; inhibition at 20 µg/mL ([1]; Homo sapiens, 31.6 TCID50): 7%; inhibition at 20 µg/mL ([1]; Homo sapiens, 100 TCID50): 0%; inhibition at 30 µg/mL ([1]; Homo sapiens, 31.6 TCID50): 60%; inhibition at 50 µg/mL ([1]; Homo sapiens, 31.6 TCID50): 95%; inhibition at 60 µg/mL ([1]; Homo sapiens, 31.6 TCID50): 100%; inhibition at 70 µg/mL ([1]; Homo sapiens, 31.6 TCID50): 100%; inhibition at 80 µg/mL ([1]; Homo sapiens, 31.6 TCID50): 100%; inhibition at 90 µg/mL ([1]; Homo sapiens, 31.6 TCID50): 100%; inhibition at 90 µg/mL ([1]; Homo sapiens, 100 TCID50): 80%; inhibition at 100 µg/mL ([1]; Homo sapiens, 31.6 TCID50, read-out: % Inhibition): 100%"
